Measured values taken from ChEMBL document CHEMBL3822455, “Aryl or heteroaryl substituted aminal derivatives of HCV NS5A inhibitor MK-8742” (Bioorg Med Chem Lett, 2016).

What was measured:
Assay type in all cases: functional, organism-based, Hepacivirus hominis
Hepatitis C virus [1] = test: Antiviral activity against HCV genotype 1a harboring NS5A Y93H mutant assessed as replicon RNA level measured after 3 days by real-time PCR method; conditions: subtype 1a, 72 h
Hepatitis C virus [2] = test: Antiviral activity against HCV genotype 4a assessed as replicon RNA level measured after 3 days by real-time PCR method; conditions: 72 h
Hepatitis C virus [3] = test: Antiviral activity against HCV genotype 2a assessed as replicon RNA level measured after 3 days by real-time PCR method; conditions: 72 h
Hepatitis C virus [4] = test: Antiviral activity against HCV genotype 3a assessed as replicon RNA level measured after 3 days by real-time PCR method; conditions: 72 h
Hepatitis C virus [5] = test: Antiviral activity against HCV genotype 1a assessed as replicon RNA level measured after 3 days by real-time PCR method; conditions: subtype 1a, 72 h
Hepatitis C virus [6] = test: Antiviral activity against HCV genotype 2b assessed as replicon RNA level measured after 3 days by real-time PCR method; conditions: 72 h
Hepatitis C virus [7] = test: Antiviral activity against HCV genotype 1a harboring NS5A L31V mutant assessed as replicon RNA level measured after 3 days by real-time PCR method; conditions: subtype 1a, 72 h
Hepatitis C virus [8] = test: Antiviral activity against HCV genotype 1b assessed as replicon RNA level measured after 3 days by real-time PCR method; conditions: 72 h

Row | Structure (SMILES) | EC50 (Hepatitis C virus [1]) [nM] | EC50 (Hepatitis C virus [2]) [nM] | EC50 (Hepatitis C virus [3]) [nM] | EC50 (Hepatitis C virus [4]) [nM] | EC50 (Hepatitis C virus [5]) [nM] | EC50 (Hepatitis C virus [6]) [nM] | EC50 (Hepatitis C virus [7]) [nM] | EC50 (Hepatitis C virus [8]) [nM]
1 | COC(=O)N[C@H](C(=O)N1CCC[C@H]1c1ncc(-c2ccc3c(c2)OC(c2cccc(O)c2)n2c-3cc3cc(-c4cnc([C@@H]5CCCN5C(=O)[C@@H](NC(=O)OC)C(C)C)[nH]4)ccc32)[nH]1)C(C)C (mixture of isomers) | 0.8 | 0.02 | 0.03 | 0.02 | 0.02 | 3 |  | 
2 | COC(=O)N[C@H](C(=O)N1CCC[C@H]1c1ncc(-c2ccc3c(c2)OC(c2cccc(OC(F)(F)F)c2)n2c-3cc3cc(-c4cnc([C@@H]5CCCN5C(=O)[C@@H](NC(=O)OC)C(C)C)[nH]4)ccc32)[nH]1)C(C)C (mixture of isomers) | 6.2 | 0.01 | 0.003 | 0.03 | 0.005 | 3 | 0.2 | 0.003
3 | COC(=O)N[C@H](C(=O)N1CCC[C@H]1c1ncc(-c2ccc3c(c2)OC(c2cccc(OCC(C)C)c2)n2c-3cc3cc(-c4cnc([C@@H]5CCCN5C(=O)[C@@H](NC(=O)OC)C(C)C)[nH]4)ccc32)[nH]1)C(C)C (mixture of isomers) | 0.9 |  |  | 0.02 | 0.01 | 12 | 0.2 | 0.004
4 | COC(=O)N[C@H](C(=O)N1CCC[C@H]1c1ncc(-c2ccc3c(c2)OC(c2ccc(-c4cccc(-c5ccccc5)c4)cc2)n2c-3cc3cc(-c4cnc([C@@H]5CCCN5C(=O)[C@@H](NC(=O)OC)C(C)C)[nH]4)ccc32)[nH]1)C(C)C (mixture of isomers) | 2 | < 0.02 | < 0.02 | 0.2 | < 0.02 | < 2 | < 2 | 0.003
5 | COC(=O)N[C@H](C(=O)N1CCC[C@H]1c1ncc(-c2ccc3c(c2)OC(c2cccc(OC4CCCC4)c2)n2c-3cc3cc(-c4cnc([C@@H]5CCCN5C(=O)[C@@H](NC(=O)OC)C(C)C)[nH]4)ccc32)[nH]1)C(C)C (mixture of isomers) | 4 |  |  | 0.03 | 0.01 | 6 | 0.2 | 0.006
6 | COC(=O)N[C@H](C(=O)N1CCC[C@H]1c1ncc(-c2ccc3c(c2)OC(c2ccc(F)cc2)n2c-3cc3cc(-c4cnc([C@@H]5CCCN5C(=O)[C@@H](NC(=O)OC)C(C)C)[nH]4)ccc32)[nH]1)C(C)C (stereo not given in full) | 5 | 0.01 | 0.002 | 0.06 | 0.003 | 2 |  | 0.006
7 | COC(=O)N[C@H](C(=O)N1CCC[C@H]1c1ncc(-c2ccc3c(c2)OC(c2cccc(N4CCOCC4)c2)n2c-3cc3cc(-c4cnc([C@@H]5CCCN5C(=O)[C@@H](NC(=O)OC)C(C)C)[nH]4)ccc32)[nH]1)C(C)C (mixture of isomers) | 52 | 0.007 | 0.002 | 0.12 | 0.004 | 17 | 0.3 | 0.006
8 | COC(=O)N[C@H](C(=O)N1CCC[C@H]1c1ncc(-c2ccc3c(c2)OC(c2cccc(OC(C)C)c2)n2c-3cc3cc(-c4cnc([C@@H]5CCCN5C(=O)[C@@H](NC(=O)OC)C(C)C)[nH]4)ccc32)[nH]1)C(C)C (mixture of isomers) | 4.4 |  |  | 0.08 | 0.007 | 28 | 0.1 | 
9 | COC(=O)N[C@H](C(=O)N1CCC[C@H]1c1ncc(-c2ccc3c(c2)OC(c2cccc(-c4cccnc4)c2)n2c-3cc3cc(-c4cnc([C@@H]5CCCN5C(=O)[C@@H](NC(=O)OC)C(C)C)[nH]4)ccc32)[nH]1)C(C)C (mixture of isomers) | 26 | 0.003 | 0.004 | 0.08 | 0.006 | 8 | 0.2 | 0.008
10 | COC(=O)N[C@H](C(=O)N1CCC[C@H]1c1ncc(-c2ccc3c(c2)OC(c2cccc(-c4cn[nH]c4)c2)n2c-3cc3cc(-c4cnc([C@@H]5CCCN5C(=O)[C@@H](NC(=O)OC)C(C)C)[nH]4)ccc32)[nH]1)C(C)C (mixture of isomers) | 101 |  | 0.03 | 0.2 | 0.01 | 25 | 10 | 
11 | COC(=O)N[C@H](C(=O)N1CCC[C@H]1c1ncc(-c2ccc3c(c2)OC(c2cccc(OC4CCCCC4)c2)n2c-3cc3cc(-c4cnc([C@@H]5CCCN5C(=O)[C@@H](NC(=O)OC)C(C)C)[nH]4)ccc32)[nH]1)C(C)C (mixture of isomers) | 3 |  |  |  | 0.01 | 7 |  | 0.007
12 | COC(=O)N[C@H](C(=O)N1CCC[C@H]1c1ncc(-c2ccc3c(c2)OC(c2cccc(-c4ccncc4)c2)n2c-3cc3cc(-c4cnc([C@@H]5CCCN5C(=O)[C@@H](NC(=O)OC)C(C)C)[nH]4)ccc32)[nH]1)C(C)C (mixture of isomers) | 40 |  | 0.007 | 0.08 | 0.007 | 10 | 10 | 
13 | COC(=O)N[C@H](C(=O)N1CCC[C@H]1c1ncc(-c2ccc3c(c2)OC(c2cc(F)ccc2OC)n2c-3cc3cc(-c4cnc([C@@H]5CCCN5C(=O)[C@@H](NC(=O)OC)C(C)C)[nH]4)ccc32)[nH]1)C(C)C (stereo not given in full) | 48 |  |  |  | 0.02 | 1 | 1 | 0.01
14 | COC(=O)N[C@H](C(=O)N1CCC[C@H]1c1ncc(-c2ccc3c(c2)OC(c2ccc(F)c(F)c2)n2c-3cc3cc(-c4cnc([C@@H]5CCCN5C(=O)[C@@H](NC(=O)OC)C(C)C)[nH]4)ccc32)[nH]1)C(C)C (stereo not given in full) | 3 | 0.008 | 0.005 |  | 0.004 | 1 | 0.5 | 0.003
15 | COC(=O)N[C@H](C(=O)N1CCC[C@H]1c1ncc(-c2ccc3c(c2)OC(c2cccc(C)c2)n2c-3cc3cc(-c4cnc([C@@H]5CCCN5C(=O)[C@@H](NC(=O)OC)C(C)C)[nH]4)ccc32)[nH]1)C(C)C (mixture of isomers) | 12 |  |  |  |  | 2 | 0.52 | 
16 | COC(=O)N[C@H](C(=O)N1CCC[C@H]1c1ncc(-c2ccc3c(c2)OC(c2cncnc2)n2c-3cc3cc(-c4cnc([C@@H]5CCCN5C(=O)[C@@H](NC(=O)OC)C(C)C)[nH]4)ccc32)[nH]1)C(C)C (mixture of isomers) | 12 |  | 0.02 | 0.2 | 0.004 | 10 | 10 | 
17 | CCCOc1cccc(C2Oc3cc(-c4cnc([C@@H]5CCCN5C(=O)[C@@H](NC(=O)OC)C(C)C)[nH]4)ccc3-c3cc4cc(-c5cnc([C@@H]6CCCN6C(=O)[C@@H](NC(=O)OC)C(C)C)[nH]5)ccc4n32)c1 (stereo not given in full) | 2.6 |  |  | 0.08 | 0.01 | 2 | 0.3 | 
18 | COC(=O)N[C@H](C(=O)N1CCC[C@H]1c1ncc(-c2ccc3c(c2)OC(c2ccc(C(F)(F)F)cc2)n2c-3cc3cc(-c4cnc([C@@H]5CCCN5C(=O)[C@@H](NC(=O)OC)C(C)C)[nH]4)ccc32)[nH]1)C(C)C (mixture of isomers) | 46 | 0.04 | 0.027 | 0.27 | 0.016 |  |  | 0.009
19 | COC(=O)N[C@H](C(=O)N1CCC[C@H]1c1ncc(-c2ccc3c(c2)OC(c2cc(F)cc(OC)c2)n2c-3cc3cc(-c4cnc([C@@H]5CCCN5C(=O)[C@@H](NC(=O)OC)C(C)C)[nH]4)ccc32)[nH]1)C(C)C (mixture of isomers) | 2.3 |  |  |  | 0.006 | 0.1 | 0.1 | 0.007
20 | COC(=O)N[C@H](C(=O)N1CCC[C@H]1c1ncc(-c2ccc3c(c2)OC(c2cccc(C#N)c2)n2c-3cc3cc(-c4cnc([C@@H]5CCCN5C(=O)[C@@H](NC(=O)OC)C(C)C)[nH]4)ccc32)[nH]1)C(C)C (mixture of isomers) | 4 | < 2 | < 2 | < 2 | < 2 | < 2 |  | < 0.2
21 | COC(=O)N[C@H](C(=O)N1CCC[C@H]1c1ncc(-c2ccc3c(c2)OC(c2ccc(C)cc2)n2c-3cc3cc(-c4cnc([C@@H]5CCCN5C(=O)[C@@H](NC(=O)OC)C(C)C)[nH]4)ccc32)[nH]1)C(C)C (stereo not given in full) | 5 | 0.7 | 0.01 | 0.5 | 0.01 |  | 4 | 0.006
22 | COC(=O)N[C@H](C(=O)N1CCC[C@H]1c1ncc(-c2ccc3c(c2)OC(c2ccccc2Cl)n2c-3cc3cc(-c4cnc([C@@H]5CCCN5C(=O)[C@@H](NC(=O)OC)C(C)C)[nH]4)ccc32)[nH]1)C(C)C (stereo not given in full) | 139 | 0.3 | 0.04 | 2 | 0.01 |  | 2 | 0.004
23 | COC(=O)N[C@H](C(=O)N1CCC[C@H]1c1ncc(-c2ccc3c(c2)OC(c2ccccn2)n2c-3cc3cc(-c4cnc([C@@H]5CCCN5C(=O)[C@@H](NC(=O)OC)C(C)C)[nH]4)ccc32)[nH]1)C(C)C (mixture of isomers) | 31 | 0.02 | 0.06 | 0.2 | 0.009 | 3 |  | 0.01
24 | COC(=O)N[C@H](C(=O)N1CCC[C@H]1c1ncc(-c2ccc3c(c2)OC(c2ccncc2)n2c-3cc3cc(-c4cnc([C@@H]5CCCN5C(=O)[C@@H](NC(=O)OC)C(C)C)[nH]4)ccc32)[nH]1)C(C)C (mixture of isomers) | 146 | 0.2 | 0.02 | 0.8 | 0.01 |  | 0.6 | 0.01
